The text below walks through data of paper PMC6904773, “Structural and functional characterization of buffalo oviduct-specific glycoprotein (OVGP1) expressed during estrous cycle” (Bioscience Reports, 2019).

The target of test [1] is T1, recombinant OVGP1 (buffalo oviduct-specific glycoprotein) (Bubalus bubalis, UniProt A4Z8Y1).
T1 construct: gene OVN; recombinant from Escherichia coli, ~58 kDa
T1 sequence (A4Z8Y1 22-540): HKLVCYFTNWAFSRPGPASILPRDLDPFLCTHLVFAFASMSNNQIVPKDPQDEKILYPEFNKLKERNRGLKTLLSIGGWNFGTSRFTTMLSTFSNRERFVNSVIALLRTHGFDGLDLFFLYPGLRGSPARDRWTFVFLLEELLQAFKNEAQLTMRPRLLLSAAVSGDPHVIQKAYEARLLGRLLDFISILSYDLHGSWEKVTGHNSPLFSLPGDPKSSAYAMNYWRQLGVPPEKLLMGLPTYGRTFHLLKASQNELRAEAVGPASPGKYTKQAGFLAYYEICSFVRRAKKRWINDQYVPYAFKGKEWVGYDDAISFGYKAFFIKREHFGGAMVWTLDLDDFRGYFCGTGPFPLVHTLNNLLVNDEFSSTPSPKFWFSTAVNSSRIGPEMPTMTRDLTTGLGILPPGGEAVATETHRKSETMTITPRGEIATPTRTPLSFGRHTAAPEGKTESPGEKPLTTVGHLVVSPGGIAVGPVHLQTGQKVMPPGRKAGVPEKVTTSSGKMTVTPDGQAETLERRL
Put plainly: intrinsic Trp fluorescence quenching (ex […] nm). In kind it is binding. To be noted: 10 uM protein, 5-15 mM ligand, 25 mM phosphate buffered saline, pH 7.2, 298 K.

For test [2], the target named is T2, native OVGP1 (buffalo oviduct-specific glycoprotein) (Bubalus bubalis, UniProt A4Z8Y1).
T2 construct: gene OVN; native, purified to homogeneity from buffalo oviducts; ~55-90 kDa; glycosylated; secreted mature form (precursor 540 aa, signal peptide 21 aa); monomer
T2 sequence (A4Z8Y1 22-540): T1 sequence (A4Z8Y1 22-540)
Put plainly: intrinsic Trp fluorescence quenching (ex […] nm). It is filed as binding. To be noted: 10 uM protein, 5-15 mM ligand, 25 mM phosphate buffered saline, pH 7.2, 298 K.

With `CC(=O)N[C@H]1C(O)O[C@H](CO)[C@H](O)[C@@H]1O` (stereo partly drawn) [GalNAc], the “intrinsic Trp fluorescence quenching (ex 280 nm)” value in test [1] is “monosaccharides i.e. GlcNAc, GalNAc and mannose complexes of both native and recombinant OVGP1”; in test [2], “monosaccharides i.e. GlcNAc, GalNAc and mannose complexes of both native and recombinant OVGP1”.

Consider `CC(=O)N[C@H]1C(O)O[C@H](CO)[C@@H](O)[C@@H]1O` (stereo partly drawn) [GlcNAc], for which the “intrinsic Trp fluorescence quenching (ex 280 nm)” value was “fluorescence intensity of both native and recombinant OVGP1 decreased with increasing concentrations of ligands” in test [1]; “fluorescence intensity of both native and recombinant OVGP1 decreased with increasing concentrations of ligands” in test [2].

For the compound `OC[C@H]1OC(O)[C@@H](O)[C@@H](O)[C@@H]1O` (stereo partly drawn) [mannose], the “intrinsic Trp fluorescence quenching (ex 280 nm)” value in test [1] was “monosaccharides i.e. GlcNAc, GalNAc and mannose complexes of both native and recombinant OVGP1”; in test [2], “monosaccharides i.e. GlcNAc, GalNAc and mannose complexes of both native and recombinant OVGP1”.
